Series [1] relates to sickle cell disease model. As to conditions: SCD mice; cited from earlier work.
For series [2], the system named is blood S1P levels. Conditions: rats dosed with 10 mg/kg; cited from earlier work.
For series [3], the target named is human SphK1. Conditions: read-out: human SphK1 Ki; cited from earlier work.
Series [4] has as its target mouse SphK2. Conditions: read-out: mouse SphK2 Ki; cited from earlier work.
Series [5] concerns blood S1P concentration. Conditions: treatment in mice; cited from earlier work.
For series [6], the system named is blood S1P levels. The series is described as follows: Blood S1P levels in mice after i.p. dose. The series is classed as in vivo. Conditions: single 10 mg/kg i.p., C57BL/6 male mice.
Series [7] is described as follows: Blood concentration of compound in mice after i.p. dose. Type of series: in vivo. Conditions: single 10 mg/kg i.p., C57BL/6 male mice, LC-MS/MS.

For the compound `Cc1cc(CS(=O)(=O)c2ccccc2)cc(OCc2ccc(CN3CCC[C@@H]3CO)cc2)c1` [Compound 3a], in series [1], the “blood and plasma S1P levels” value is listed as “reduced”; the erythrocyte sickling result was “decreased”. Consider `CCCCCCCCc1ccc(-c2noc(C[C@@H]3CCCN3C(=N)N)n2)cc1` [Compound 4], for which, in series [2], the “decrease of blood S1P levels” value is on record as “about 80%”. `Cc1ccc(S(=O)(=O)Nc2ccccc2/C=N/c2ccccc2NS(=O)(=O)c2ccc(C)cc2)cc1` [Compound 5]: the inhibition constant (Ki) in series [3] is 27 ± 3 µM.

For the compound `CCCCCCCCc1ccc(-c2noc([C@@H]3CCCN3C(=N)N)n2)cc1` [Compound 7], in series [4], the Ki is 1.3 µM. For `CCCCCCCCOc1ccc(-c2noc([C@@H]3CCCN3C(=N)N)n2)cc1C(F)(F)F.Cl` [Compound 8], the “blood S1P concentration” value in series [5] is listed as “increase in blood S1P concentration”. `Cl.N=C(N)N1CCC[C@H]1c1nc(-c2ccc(OCc3ccc(C(F)(F)F)cc3)c(C(F)(F)F)c2)no1` [Compound 10, (S)-2-(3-(3-(trifluoromethyl)-4-((4-(trifluoromethyl)benzyl)oxy)phenyl)-1,2,4-oxadiazol-5-yl)pyrrolidine-1-carboximidamide]: the “time blood S1P levels remained elevated” value in series [6] is “up to 6 hours”. For the same compound, the “increase of blood S1P levels” value in series [6] (after 4 hours) is recorded as “nearly two-fold”. In series [7], the “peak level of compound in blood” value was ~ 8 μM.

The Ki is a measure of affinity in units of concentration, obtained from inhibition or displacement.

The values above are taken from publication PMC8215855 (Journal of medicinal chemistry, 2020).
